Laboratory results taken from US10358446B2, “Bruton's tyrosine kinase inhibitors” (Zibo Biopolar Changsheng Pharmaceutical Co. Ltd., priority 2015, dated 2019).

target: BTK (Homo sapiens (Human), UniProt Q06187); test: Btk kinase assay (HTRF); format: biochemical; settings: [ATP]=80 μM, BTK=3.4 nM; read-out: BTK Inhibition
Method: Btk kinase activity was determined using a homogenous time resolved fluorescence (HTRF) methodology. Measurements were performed in a reaction volume of 15 μL using 384-well assay plates. Kinase enzyme, inhibitor, ATP and 1 μM peptide substrate were incubated in a reaction buffer compose of Hepes 50 mM (pH7.0), NaN3 0.02%, BSA 0.01%, Orthocanadate 0.1 mM. After one hour, the kinase reaction was quenched by the addition of […] antibody and XL-665 in 1× Detection buffer containing 60 mM EDTA (Cisbio), and the mixture was allowed to incubate for one hour. The HTRF signal was measured on a multimode plate reader (EnVision® Multilabel Reader, Perkin Elmer) with an excitation wavelength (λEx) of 330 nm and detection wavelengths (λEm) of 615 and 665 nrm. Activity was determined by the ratio of the fluorescence at 665 nm to that at 615 nm. For each compound, enzyme activity as measured at various concentrations of compound, Negative control reactions were performed in the absence of inhibitor in two replicates and eight no enzyme controls were used to determine baseline fluorescence levels. IC50s were obtained according to the equation: […] For BTK assay, [ATP]=80 μM, BTK=3.4 nM.

Chain of BTK (Q06187 whole entry, species assumed): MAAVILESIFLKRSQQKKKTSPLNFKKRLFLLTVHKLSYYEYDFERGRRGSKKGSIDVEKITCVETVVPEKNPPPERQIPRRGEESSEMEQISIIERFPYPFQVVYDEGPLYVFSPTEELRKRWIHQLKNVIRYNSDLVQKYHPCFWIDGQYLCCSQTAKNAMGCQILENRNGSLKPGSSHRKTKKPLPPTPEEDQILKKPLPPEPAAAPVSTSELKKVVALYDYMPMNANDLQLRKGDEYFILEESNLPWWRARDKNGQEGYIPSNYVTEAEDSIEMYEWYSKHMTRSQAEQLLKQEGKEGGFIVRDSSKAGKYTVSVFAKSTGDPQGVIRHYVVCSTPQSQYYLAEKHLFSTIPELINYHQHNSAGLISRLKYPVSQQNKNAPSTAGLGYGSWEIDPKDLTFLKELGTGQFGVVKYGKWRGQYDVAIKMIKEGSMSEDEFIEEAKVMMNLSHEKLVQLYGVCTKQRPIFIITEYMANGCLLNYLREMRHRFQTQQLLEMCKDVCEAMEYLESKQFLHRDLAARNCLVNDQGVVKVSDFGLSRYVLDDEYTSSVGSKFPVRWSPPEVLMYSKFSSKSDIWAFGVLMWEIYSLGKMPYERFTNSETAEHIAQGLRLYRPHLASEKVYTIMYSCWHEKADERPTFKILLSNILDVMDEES

SMILES	IC50 [nM]
C=CC(=O)Nc1cccc(-n2c(=O)n(-c3ccc(Oc4cccc(OC)c4)c(F)c3)c3cnccc32)c1 [Example 94, N-(3-(3-(3-fluoro-4-(3-methoxyphenoxy)phenyl)-2-oxo-2,3-dihydro-1H-imidazo[4,5-c]pyridin-1-yl)phenyl)acrylamide]	10 to 100
C=CC(=O)N1CC[C@@H](n2c(=O)n(-c3ccc(Oc4ccccc4)cc3)c3cnccc32)C1 [Example 33, (R)-1-(1-acryloylpyrrolidin-3-yl)-3-(4-phenoxyphenyl)-1H-imidazo[4,5-c]pyridin-2(3H)-one]	10 to 100
C=CC(=O)N1CCC(n2c(=O)n(-c3ccc(Oc4ccccc4)c(C)c3)c3cnccc32)C1 (stereo not shown) [Example 91, 1-(1-acryloylpyrrolidin-3-yl)-3-(3-methy1-4-phenoxyphenyl)-1,3-dihydro-2H-imidazo[4,5-c]pyridin-2-one]	10 to 100
CN(C/C=C/C(=O)N1CCC[C@@H](n2c(=O)n(-c3ccc(Oc4ccccc4)cc3)c3cnccc32)C1)C1CC1 [Example 188, (R,E)-1-(1-(4-(cyclopropyl(methyl)amino)but-2-enoyl)piperidin-3-yl)-3-(4-phenoxyphenyl)-1H-imidazo[4,5-c]pyridin-2(3H)-one]	100 to 1000
C=CC(=O)N1CC[C@@H](n2c(=O)n(-c3cccc(Oc4cccc(Cl)c4F)c3)c3cnccc32)C1 [Example 97, (R)-1-(1-acryloylpyrrolidin-3-yl)-3-(3-(3-chloro-2-fluorophenoxy)phenyl)-1,3-dihydro-2H-imidazo[4,5-c]pyridin-2-one]	10 to 100
C=CC(=O)Nc1cccc(-n2c(=O)n(-c3ccc(Oc4ccc(OC)c(F)c4)cc3)c3cnccc32)c1 [Example 161, N-(3-(3-(4-(3-fluoro-4-methoxyphenoxy)phenyl)-2-oxo-2,3-dihydro-1H-imidazo[4,5-c]pyridin-1-yl)phenyl)acrylamide]	100 to 1000
CC#CC(=O)N1CCC[C@@H](n2c(=O)n(-c3ccc(Oc4cccc(OC)c4F)cc3)c3cncc(C)c32)C1 [Example 171, (R)-1-(1-(but-2-ynoyl)piperidin-3-yl)-3-(4-(2-fluoro-3-methoxyphenoxy)phenyl)-7-methyl-1H-imidazo[4,5-c]pyridin-2(3H)-one]	100 to 1000
C=CC(=O)N1CCC(n2c(=O)n(-c3ccc(Oc4cccnn4)cc3)c3cnccc32)C1 (stereo not shown) [Example 165, 1-(1-acryloylpyrrolidin-3-yl)-3-(4-(pyridazin-3-yloxy)phenyl)-1H-imidazo[4,5-c]pyridin-2(3H)-one]	100 to 1000
C=CC(=O)N1CC[C@@H](n2c(=O)n(-c3ccc(Oc4ccccc4)cc3)c3cncc(Cl)c32)C1 [Example 151, (R)-1-(1-acryloylpyrrolidin-3-yl)-7-chloro-3-(4-phenoxyphenyl)-1H-imidazo[4,5-c]pyridin-2(3H)-one]	≤ 10
CN(C(=O)/C=C/CN(C)C1CC1)c1cccc(-n2c(=O)n(-c3ccc(Oc4ccccc4)cc3)c3c(N)ncnc32)c1 [Example 174, (E)-N-(3-(6-amino-8-oxo-7-(4-phenoxyphenyl)-7H-purin-9(8H)-yl)phenyl)-4-(cyclopropyl(methyl)amino)-N-methylbut-2-enamide]	10 to 100
C=CC(=O)Nc1cccc(-n2c(=O)n(-c3ccc(Oc4cccc(F)c4)c(C)c3)c3cnccc32)c1 [Example 146, N-(3-(3-(4-(3-fluorophenoxy)-3-methylphenyl)-2-oxo-2,3-dihydro-1H-imidazo[4,5-c]pyridin-1-yl)phenyl)acrylamide]	10 to 100
C=CC(=O)N1CC[C@@H](n2c(=O)n(-c3cccc(Oc4ccc(OC)cc4)c3)c3cnccc32)C1 [Example 17, (R)-1-(1-acryloylpyrrolidin-3-yl)-3-(3-(4-methoxyphenoxy)phenyl)-1H-imidazo[4,5-c]pyridin-2(3H)-one]	100 to 1000
C=CC(=O)Nc1cccc(-n2c(=O)n(-c3ccc(Oc4cccc(C)c4)c(F)c3)c3cnccc32)c1 [Example 49, N-(3-(3-(3-fluoro-4-(m-tolyloxy)phenyl)-2-oxo-2,3-dihydro-1H-imidazo[4,5-c]pyridin-1-yl)phenyl)acrylamide]	10 to 100
C=CC(=O)N1CCC[C@@H](n2c(=O)n(-c3ccc(Oc4cccc(C)c4F)cc3)c3cnccc32)C1 [Example 141, (R)-1-(1-acryloylpiperidin-3-yl)-3-(4-(2-fluoro-3-methylphenoxy)phenyl)-1H-imidazo[4,5-c]pyridin-2(3H)-one]	10 to 100
C=CC(=O)Nc1cccc(-n2c(=O)n(-c3ccc(Oc4cc(Cl)cc(Cl)c4)cc3)c3cnccc32)c1 [Example 130, N-(3-(3-(4-(3,5-dichlorophenoxy)phenyl)-2-oxo-2,3-dihydro-1H-imidazo[4,5-c]pyridin-1-yl)phenyl)acrylamide]	100 to 1000
C=CC(=O)Nc1cccc(-n2c(=O)n(-c3ccc(Oc4cccc(OC(C)C)c4)c(C)c3)c3cnccc32)c1 [Example 46, N-(3-(3-(4-(3-isopropoxyphenoxy)-3-methylphenyl)-2-oxo-2,3-dihydro-1H-imidazo[4,5-c]pyridin-1-yl)phenyl)acrylamide]	1000 to 10000

Now from value to molecule:

IC50 [nM]	SMILES
100 to 1000	C=CC(=O)N1CC[C@@H](n2c(=O)n(-c3ccc(OCc4cc(F)ccc4F)cc3)c3cnccc32)C1 [Example 209, (R)-1-(1-acryloylpyrrolidin-3-yl)-3-(4-((2,5-difluorobenzyl)oxy)phenyl)-1H-imidazo[4,5-c]pyridin-2(3H)-one]
≥ 10000	C=CC(=O)N1CC[C@@H](n2c(=O)n(-c3ccc(-c4ccc(Cl)cc4Cl)cc3)c3cnccc32)C1 [Example 275]
1000 to 10000	C=CC(=O)N1CC[C@@H](n2c(=O)n(-c3ccc(OCc4ccc(F)c(F)c4)cc3)c3cnccc32)C1 [Example 214, (R)-1-(1-acryloylpyrrolidin-3-yl)-3-(4-((3,4-difluorobenzyl)oxy)phenyl)-1H-imidazo[4,5-c]pyridin-2(3H)-one]
100 to 1000	C=CC(=O)Nc1cccc(-n2c(=O)n(-c3ccc(OCc4ccccc4)cc3)c3cnccc32)c1 [Example 239]
100 to 1000	C=CC(=O)N1CC[C@@H](n2c(=O)n(-c3ccc(OCc4ccc(F)cc4F)cc3)c3cnccc32)C1 [Example 199, (R)-1-(1-acryloylpyrrolidin-3-yl)-3-(4-((2,4-difluorobenzyl)oxy)phenyl)-1H-imidazo[4,5-c]pyridin-2(3H)-one]
100 to 1000	C=CC(=O)N1CC[C@@H](n2c(=O)n(-c3ccc(OCc4ccccc4F)cc3)c3cnccc32)C1 [Example 216, (R)-1-(1-acryloylpyrrolidin-3-yl)-3-(4-((2-fluorobenzyl)oxy)phenyl)-1H-imidazo[4,5-c]pyridin-2(3H)-one]
10 to 100	C=CC(=O)Nc1cccc(-n2c(=O)n(-c3ccc(C(=O)NCc4ccc(F)cc4)cc3)c3cnccc32)c1 [Example 249, 4-(1-(3-acrylamidophenyl)-2-oxo-1H-imidazo[4,5-c]pyridin-3(2H)-yl)-N-(4-fluorobenzyl)benzamide]
100 to 1000	C=CC(=O)Nc1cccc(-n2c(=O)n(-c3ccc(OCc4ccccc4)c(Cl)c3)c3cnccc32)c1 [Example 224, N-(3-(3-(4-(benzyloxy)-3-chlorophenyl)-2-oxo-2,3-dihydro-1H-imidazo[4,5-c]pyridin-1-yl)phenyl)acrylamide]
100 to 1000	C=CC(=O)N1CC[C@@H](n2c(=O)n(-c3ccc(OCc4ccccc4)c(Cl)c3)c3cnccc32)C1 [Example 197, (R)-1-(1-acryloylpyrrolidin-3-yl)-3-(4-(benzyloxy)-3-chlorophenyl)-1H-imidazo[4,5-c]pyridin-2(3H)-one]
